Laboratory results published in ChEMBL document CHEMBL5543168, “Discovery of Urea Derivatives of Celastrol as Selective Peroxiredoxin 1 Inhibitors against Colorectal Cancer Cells” (J Med Chem, 2024).
Activity calls are given as the source filed them. No cut-off for these calls is given here.

How the values were obtained:
[1] = test system: SW-620; assay: Induction of apoptosis in human SW620 cells assessed as increase in Cyt C level incubated for 48 hrs by Western blot analysis; assay type: functional, cell-based; details: dose 0.25-2 µM
[2] = test system: SW-620; assay: Induction of cell cycle arrest at G1 phase in human SW620 cells at 0.5 uM incubated for 24 hrs by PI staining based flow cytometry (reference value: 32.4 %); assay type: functional
[3] = test system: SW-620; assay: Induction of apoptosis in human SW620 cells assessed as total apoptotic cells at 1 uM incubated for 48 hrs by Annexin V-FITC/PI staining based flow cytometry relative to control; assay type: functional
[4] = AUC (0 to infinity) in mouse at 2 mg/kg, iv measured for 24 hrs by LC-MS/MS analysis; assay type: ADME, organism-based; details: in vivo
[5] = AUC (0 to t) in mouse at 2 mg/kg, iv measured for 24 hrs by LC-MS/MS analysis; assay type: ADME, organism-based; details: in vivo
[6] = Acute toxicity in C57BL/[…] 6J mouse assessed as pathological change in spleen at 20 mg/kg, ip measured for 2 weeks by H and E staining based analysis; assay type: organism-based; details: in vivo, 336 h
[7] = Acute toxicity in C57BL/[…] 6J mouse assessed as pathological change in heart at 20 mg/kg, ip measured for 2 weeks by H and E staining based analysis; assay type: organism-based; details: in vivo, 336 h
[8] = Acute toxicity in C57BL/[…] 6J mouse assessed as pathological change in kidney at 20 mg/kg, ip measured for 2 weeks by H and E staining based analysis; assay type: organism-based; details: in vivo, 336 h
[9] = test system: SW-620; assay: Induction of cell cycle arrest at S phase in human SW620 cells at 1 uM incubated for 24 hrs by PI staining based flow cytometry (reference value: 59.9 %); assay type: functional
[10] = Toxicity in BALB/c nude mouse xenografted with human SW620 cells assessed as body weight loss at 2 mg/kg, ip qd for 16 days; assay type: organism-based, SW-620; details: in vivo, 384 h, time 16 day
[11] = Selectivity ratio of IC50 for mouse […] cells to IC50 for human HCT-116 cells; assay type: functional
[12] = test system: SW-620; assay: Induction of apoptosis in human SW620 cells assessed as decrease in Bcl-2 level incubated for 48 hrs by Western blot analysis; assay type: functional, cell-based; details: dose 0.25-2 µM
[13] = test system: SW-620; assay: Antitumor activity against human SW620 cells xenografted in BALB/c nude mouse assessed as decrease in tumor weight at 2 mg/kg, ip qd for 16 days; assay type: functional, organism-based; details: time 16.0 day
[14] = Selectivity ratio of IC50 for human LX2 cells to IC50 for human SW620 cells; assay type: functional
[15] = test system: SW-620; assay: Induction of cell cycle arrest at G2 phase in human SW620 cells at 2 uM incubated for 24 hrs by PI staining based flow cytometry (reference value: 6.77 %); assay type: functional
[16] = Acute toxicity in C57BL/[…] 6J mouse assessed as pathological change in liver at 20 mg/kg, ip measured for 2 weeks by H and E staining based analysis; assay type: organism-based; details: in vivo, 336 h
[17] = Selectivity ratio of IC50 for HEK293T cells to IC50 for human HCT-116 cells; assay type: functional
[18] = target: T1, Thioredoxin-dependent peroxide reductase, mitochondrial (Homo sapiens, UniProt P30048); assay: Inhibition of recombinant PRDX3 (unknown origin) using H2O2 as substrate preincubated for 0.5 hrs followed by substrate addition by TRX-TrxR-NADPH coupling assay
T1 sequence (P30048 whole entry): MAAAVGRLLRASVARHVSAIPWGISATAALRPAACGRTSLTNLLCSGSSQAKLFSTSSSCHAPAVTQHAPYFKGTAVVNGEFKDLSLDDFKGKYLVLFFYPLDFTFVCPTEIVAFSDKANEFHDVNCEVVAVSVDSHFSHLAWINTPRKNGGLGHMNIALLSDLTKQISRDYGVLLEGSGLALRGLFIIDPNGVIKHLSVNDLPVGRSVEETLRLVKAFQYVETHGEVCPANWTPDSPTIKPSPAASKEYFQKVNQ

[19] = test system: SW-620; assay: cells; details: Homo sapiens, SW-620, 48 h, read-out: Activity
Description: Induction of apoptosis in human SW620 cells assessed as viable cells at 2 uM incubated for 48 hrs by Annexin V-FITC/PI staining based flow cytometry (Rvb = 90.7 %)

[20] = test system: SW-620; assay: Induction of cell cycle arrest at G2 phase in human SW620 cells at 0.5 uM incubated for 24 hrs by PI staining based flow cytometry (reference value: 6.77 %); assay type: functional
[21] = Cmax in mouse at 2 mg/kg, iv measured for 24 hrs by LC-MS/MS analysis; assay type: ADME, organism-based; details: in vivo
[22] = test system: SW-620; assay: Induction of apoptosis in human SW620 cells assessed as total apoptotic cells at 2 uM incubated for 48 hrs by Annexin V-FITC/PI staining based flow cytometry relative to control; assay type: functional
[23] = Antiproliferative activity against mouse […] cells; assay type: toxicity, cell-based
[24] = test system: SW-620; assay: Induction of mitochondrial membrane potential depolarization in human SW620 cells assessed as JC-1-stained red cells upto 2 uM incubated for 48 hrs by flow cytometry (reference value: 89.8 %); assay type: functional; details: up to 2 µM
[25] = target: T2, Peroxiredoxin-1 (Homo sapiens, UniProt Q06830); assay: Binding affinity to CM5 sensor chip-immobilized recombinant PRDX1 (unknown origin) assessed as dissociation constant by SPR analysis
T2 sequence (Q06830 whole entry): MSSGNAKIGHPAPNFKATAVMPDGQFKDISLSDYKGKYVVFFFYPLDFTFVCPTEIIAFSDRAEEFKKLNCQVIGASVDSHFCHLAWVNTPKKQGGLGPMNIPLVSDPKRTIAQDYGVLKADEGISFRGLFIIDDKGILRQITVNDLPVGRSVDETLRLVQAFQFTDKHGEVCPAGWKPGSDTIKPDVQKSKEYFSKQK

[26] = target: T3, Peroxiredoxin-6 (Homo sapiens, UniProt P30041); assay: Inhibition of recombinant PRDX6 (unknown origin) using H2O2 as substrate preincubated for 0.5 hrs followed by substrate addition by TRX-TrxR-NADPH coupling assay
T3 sequence (P30041 whole entry): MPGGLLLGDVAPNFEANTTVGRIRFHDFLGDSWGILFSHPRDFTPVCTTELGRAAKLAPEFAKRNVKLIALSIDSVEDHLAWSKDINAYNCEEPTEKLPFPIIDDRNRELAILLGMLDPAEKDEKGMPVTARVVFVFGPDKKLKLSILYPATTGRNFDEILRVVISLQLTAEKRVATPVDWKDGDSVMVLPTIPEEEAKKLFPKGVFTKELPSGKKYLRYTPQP

[27] = Volume of distribution in mouse at 2 mg/kg, iv measured for 24 hrs by LC-MS/MS analysis; assay type: ADME, organism-based; details: in vivo
[28] = test system: SW-620; assay: Induction of cell cycle arrest at S phase in human SW620 cells at 2 uM incubated for 24 hrs by PI staining based flow cytometry (reference value: 59.9 %); assay type: functional
[29] = Antiproliferative activity against human LX2 cells; assay type: toxicity, cell-based, LX-2
[30] = test system: SW-620; assay: Induction of mitochondrial membrane potential depolarization in human SW620 cells assessed as increase in green fluorescence incubated for 48 hrs by JC1-staining based CLSM analysis; assay type: functional, cell-based; details: dose 0.5-2 µM
[31] = test system: SW-620; assay: Antitumor activity against human SW620 cells xenografted in BALB/c nude mouse assessed as nuclear pyknosis in tumor cells at 2 mg/kg, ip qd for 16 days by H and E staining based analysis; assay type: functional, organism-based; details: time 16.0 day
[32] = target: T2, Peroxiredoxin-1; assay: Inhibition of recombinant PRDX1 (unknown origin) using H2O2 as substrate preincubated for 0.5 hrs followed by substrate addition by TRX-TrxR-NADPH coupling assay

COC(=O)C1(NC(=O)N[C@]2(C)CC[C@]3(C)CC[C@]4(C)C5=CC=C6C(=CC(=O)C(O)=C6C)[C@]5(C)CC[C@@]4(C)[C@@H]3C2)CCC1
Activity [1]: Dose-Dependent Effect | Activity [2]: 33.5% | Activity [3]: 19% | AUC(0-inf) [4]: 403 ng·h/mL | AUC(0-t) at 24 h [5]: 364 ng·h/mL | Activity [6]: Non-Toxic | Activity [7]: Non-Toxic | Activity [8]: Non-Toxic | Activity [9]: 42.7% | Activity [10]: Non-Toxic | Selectivity ratio [11]: 2 | Activity [12]: Dose-Dependent Effect | Activity [13]: Active | Selectivity ratio [14]: 2 | Activity [15]: 17.4% | Activity [16]: Non-Toxic | Selectivity ratio [17]: 2 | IC50 [18]: > 50000 nM | viability at 2 µM [19]: 41.5% | Activity [20]: 7.05% | Cmax [21]: 203 ng/mL | Activity [22]: 54.7% | IC50 [23]: ~1000 nM | Activity [24]: 39.2% | Kd [25]: 370 nM | IC50 [26]: > 50000 nM | Vd [27]: 60.7 L/kg | Activity [28]: 50.1% | IC50 [29]: ~1000 nM | Activity [30]: Dose-Dependent Effect | Activity [31]: Active | IC50 [32]: 350 nM
